pIC50: −log10 of the molar value. Where two headings read alike, the source gives them in different places.
Assays:
hERG channels = hERG channels (Homo sapiens (Human), UniProt Q12809); experiment: hERG Manual Patch Clamp Assay; assay type: cell-based; conditions: human, HEK 293 cells stably expressing hERG channels, pH 7.4, 1 uM, read-out: hERG EP % Inh @ 1 uM
hROMK (human Kir1.1) [1] = target: T1, hROMK (human Kir1.1) (Homo sapiens (Human), UniProt P48048); experiment: cell-based; conditions: CHO T-Rex hROMK stable cell line; thallium flux; 10-point concentration response curve; read-out: Human ROMK Th Flux IC50
hROMK (human Kir1.1) [2] = target: T1, hROMK (human Kir1.1); experiment: cell-based; assay type: cell-based; conditions: whole-cell manual patch clamp, CHO T-Rex hROMK stable cell line, voltage step to -120 mV, Ba2+-subtracted hROMK current; read-out: ROMK EP IC50
Experimental: ROMK Manual Patch Clamp Assay
Cell culture conditions: Cells were maintained in conditions similar to those for Thallium flux assay. hROMK channel expression was induced by adding 0.6 μg/ml of Doxycycline 16-24 hrs prior to the experiments. On the day of experiment, the cells were dissociated using Versene, resuspended in growth media and plated onto coverslips 15 minutes prior to use.
Electrophysiology: The coverslip plated with cells was placed in the experiment chamber perfused with bath solution composed of (in mM): 135 NaCl, 5 KCl, 2 CaCl2, 1 MgCl2, 10 HEPES, 5 Glucose (pH 7.4). Patch pipettes with resistance between 2-5 Megaohms, when filled with a solution containing (in mM): 135 KCl, 1 EGTA, 1 MgCl2, 10 HEPES, 2 Na2ATP (pH 7.3), were used to form gigaseals. The cells were voltage clamped at −75 mV in whole-cell configuration using an Axopatch 200b or Multiclamp 700b (Molecular Devices) amplifier controlled by pClamp Software (Molecular Devices). The current was recorded by applying a voltage step to −120 mV every 10 seconds. […] At the end of the experiment, the cells were perfused with bath solution containing 2 mM Ba^2+ to isolate the contribution of hROMK current.
Data analysis: Raw current values (5 traces each for control, different compound concentration and Ba^2+ treatment groups) were exported from Clampfit into Microsoft Excel where the current remaining after application of Ba^2+ was subtracted from raw current to obtain hROMK specific current.

T1 sequence (P48048 whole entry): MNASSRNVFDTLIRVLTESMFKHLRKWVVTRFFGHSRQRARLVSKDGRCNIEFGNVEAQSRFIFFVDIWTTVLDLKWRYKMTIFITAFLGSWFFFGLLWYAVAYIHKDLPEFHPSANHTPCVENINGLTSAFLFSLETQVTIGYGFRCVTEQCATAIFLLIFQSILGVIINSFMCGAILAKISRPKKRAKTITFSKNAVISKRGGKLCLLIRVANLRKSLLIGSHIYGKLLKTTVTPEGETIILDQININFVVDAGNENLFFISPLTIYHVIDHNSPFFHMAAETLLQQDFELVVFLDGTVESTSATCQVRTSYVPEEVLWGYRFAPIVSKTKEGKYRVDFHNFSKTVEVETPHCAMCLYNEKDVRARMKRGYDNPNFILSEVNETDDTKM
hERG channels, sequence (Q12809 whole entry): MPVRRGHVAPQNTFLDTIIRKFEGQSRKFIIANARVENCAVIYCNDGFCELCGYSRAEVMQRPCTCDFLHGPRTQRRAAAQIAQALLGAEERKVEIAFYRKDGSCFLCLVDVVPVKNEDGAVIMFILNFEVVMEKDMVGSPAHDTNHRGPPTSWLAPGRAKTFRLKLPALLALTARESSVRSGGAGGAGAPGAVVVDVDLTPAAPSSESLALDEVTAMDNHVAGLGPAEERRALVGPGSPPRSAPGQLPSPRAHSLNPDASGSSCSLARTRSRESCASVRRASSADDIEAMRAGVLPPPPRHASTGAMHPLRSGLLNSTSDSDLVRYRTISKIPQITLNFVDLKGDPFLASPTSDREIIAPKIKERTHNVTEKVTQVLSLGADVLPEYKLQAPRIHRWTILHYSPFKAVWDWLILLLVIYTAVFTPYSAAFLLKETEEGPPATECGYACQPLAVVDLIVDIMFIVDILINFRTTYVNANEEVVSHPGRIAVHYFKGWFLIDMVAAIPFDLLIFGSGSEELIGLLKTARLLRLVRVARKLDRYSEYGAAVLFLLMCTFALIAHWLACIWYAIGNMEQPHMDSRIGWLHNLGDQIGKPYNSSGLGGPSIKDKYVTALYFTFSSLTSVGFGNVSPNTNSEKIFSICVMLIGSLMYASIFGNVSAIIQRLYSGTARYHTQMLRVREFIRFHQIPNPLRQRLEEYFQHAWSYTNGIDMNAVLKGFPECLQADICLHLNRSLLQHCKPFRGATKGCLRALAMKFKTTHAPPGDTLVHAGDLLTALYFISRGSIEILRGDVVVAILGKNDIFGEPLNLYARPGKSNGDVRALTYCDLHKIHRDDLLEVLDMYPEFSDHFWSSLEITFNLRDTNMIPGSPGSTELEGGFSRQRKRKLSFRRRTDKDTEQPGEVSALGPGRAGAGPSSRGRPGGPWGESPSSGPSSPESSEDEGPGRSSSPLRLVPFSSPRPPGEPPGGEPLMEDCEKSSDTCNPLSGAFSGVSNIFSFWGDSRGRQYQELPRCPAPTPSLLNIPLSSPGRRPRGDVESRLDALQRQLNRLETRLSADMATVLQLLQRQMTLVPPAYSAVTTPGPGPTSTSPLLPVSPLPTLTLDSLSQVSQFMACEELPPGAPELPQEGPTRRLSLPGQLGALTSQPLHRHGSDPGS

Row | Compound | inhibition at 1 µM (hERG channels) | pIC50 (hROMK (human Kir1.1) [1]) | pIC50 (hROMK (human Kir1.1) [2])
1 | COc1cc(-n2cc(CN3CC[C@@H](O)[C@H](c4ccc5c(c4C)COC5=O)C3)n(C)c2=O)ncc1C#N [Example 171-I, 6-(4-(((3R,4R)-4-hydroxy-3-(4-methyl-1-oxo-1,3-dihydroisobenzofuran-5-yl)piperidin-1-yl)methyl)-3-methyl-2-oxo-2,3-dihydro-1H-imidazol-1-yl)-4-methoxynicotinonitrile] | 16% | 7.57 | 7.59
2 | Cc1cn(-c2ccc(CN3CCN[C@H](c4ccc5c(c4C)COC5=O)C3)cn2)cn1 [Example 66-I, (R)-4-methyl-5-(4-((6-(4-methyl-1H-imidazol-1-yl)pyridin-3-yl)methyl)piperazin-2-yl)iso-benzofuran-1(3H)-one] | 0% | 7.48 | 8.33
3 | Cc1cn(-c2ncc(CN3CCN[C@H](c4ccc5c(c4C)COC5=O)C3)cn2)cn1 [Example 216-I] | 5.6% | 7.60 | 7.85
4 | Cc1cn(-c2ccc(CN3CCO[C@H](c4ccc5c(c4C)COC5=O)C3)cn2)cn1 [Example 16-I, (R)-4-methyl-5-(4-((6-(4-methyl-1H-imidazol-1-yl)pyridin-3-yl)methyl)morpholin-2-yl)isobenzofuran-1(3H)-one] | 7.3% | 7.48 | 7.96
5 | Cc1cc(-n2cc(CN3C[C@@H](c4ccc5c(c4C)COC5=O)N[C@@H](C)C3)cn2)ncc1C#N [Example 105-I, 4-methyl-6-(4-(((3S,5R)-3-methyl-5-(4-methyl-1-oxo-1,3-dihydroisobenzofur-an-5-yl)piperazin-1-yl)methyl)-1H-pyrazol-1-yl)nicotinonitrile] | 9.7% | 7.59 | 7.96
6 | COc1cc(-n2cc(CN3CCN[C@H](c4ccc5c(c4C)COC5=O)C3)nn2)nc(C)c1C#N [Example 187-I, (R)-4-methoxy-2-methyl-6-(4-((3-(4-methyl-1-oxo-1,3-dihydroisobenzofuran-5-yl)piperaizn-1-yl)methyl)-1H-1,2,3-triazol-1-yl)nicotinonitrile] | 11% | 7.37 | 7.60
7 | Cc1cc(-c2nnc(CN3C[C@@H](c4ccc5c(c4C)COC5=O)N[C@@H](C)C3)o2)ncc1C#N [Example 191-I, 4-methyl-6-(5-(((3S,5R)-3-methyl-5-(4-methyl-1-oxo-1,3-dihydroisobenzofuran-5-yl)piperazin-1-yl)methyl)-1,3,4-oxadiazol-2-yl)nicotinonitrile] | 4.3% | 7.54 | 7.68
8 | COc1cc(-n2ncc(CN3CC(c4ccc5c(c4C)COC5=O)NC(C)(C)C3)n2)ncc1C#N (single isomer, unassigned) [Example 190-I, 6-(4-((3,3-dimethyl-5-(4-methyl-1-oxo-1,3-dihydroisobenzofuran-5-yl)piperazin-1-yl)methyl)-2H-1,2,3-triazol-2-yl)-4-methoxynicotinonitrile] | 9.1% | 7.77 | 7.89
9 | Cc1cc(-c2cc(CN3CC[C@@H](O)[C@H](c4ccc5c(c4C)COC5=O)C3)on2)ncc1C#N [Example 193-I, 6-(5-(((3R,4R)-4-hydroxy-3-(4-methyl-1-oxo-1,3-dihydroisobenzofuran-5-yl)piperidin-1-yl)methyl)isoxazol-3-yl)-4-methylnicotinonitrile] | 14% | 7.36 | 7.70
10 | COc1nc(-n2cnc(CN3C[C@@H](c4ccc5c(c4C)COC5=O)N[C@@H](C)C3)c2)ncc1C#N [Example 103-I, 4-methoxy-2-(4-(((3S,5R)-3-methyl-5-(4-methyl-1-oxo-1,3-dihydroisobenzofur-an-5-yl)piperazin-1-yl)methyl)-1H-imidazol-1-yl)pyrimidine-5-carbonitrile] | 14% | 7.60 | 7.54
11 | COc1cc(-n2cc(CN3CCN[C@H](c4ccc5c(c4C)COC5=O)C3)nn2)ncc1C#N [Example 255-I, (R)-4-methoxy-6-(4-((3-(4-methyl-1-oxo-1,3-dihydroisobenzofuran-5-yl)piperazin-1-yl)methyl)-1H-1,2,3-triazol-1-yl)nicotinonitrile] | 9.5% | 7.48 | 8.04
12 | Cc1ncn(-c2ncc(CN3C[C@@H](c4ccc5c(c4C)COC5=O)N[C@@H](C)C3)cn2)c1C [Example 94-I, 5-((2R,6S)-4-((2-(4,5-dimethyl-1H-imidazol-1-yl)pyrimidin-5-yl)methyl)-6-methylpiperazin-2-yl)-4-methylisobenzofuran-1(3H)-one] | 4.3% | 7.41 | 7.85
13 | Cc1nn(-c2ncc(CN3C[C@@H](c4ccc5c(c4C)COC5=O)N[C@@H](C)C3)cn2)cc1C#N [Example 108-I, 3-methyl-1-(5-(((3S,5R)-3-methyl-5-(4-methyl-1-oxo-1,3-dihydroisobenzofur-an-5-yl)piperazin-1-yl)methyl)pyrimidin-2-yl)-1H-pyrazole-4-carbonitrile] | 8.7% | 7.52 | 7.68
14 | COc1cc(-n2cnc(CN3CCN[C@H](c4ccc5c(c4C)COC5=O)C3)c2)ncc1C#N [Example 14-I, (R)-4-methoxy-6-(4-((3-(4-methyl-1-oxo-1,3-dihydroisobenzofuran-5-yl)piperazin-1-yl)methyl)-1H-imidazol-1-yl)nicotinonitrile] | 1.7% | 7.44 | 7.29
15 | COc1nc(-n2ncc(CN3C[C@@H](c4ccc5c(c4C)COC5=O)N[C@@H](C)C3)n2)ncc1C#N [Example 166-I, 4-methoxy-2-(4-(((3S,5R)-3-methyl-5-(4-methyl-1-oxo-1,3-dihydroisobenzofuran-5-yl)piperazin-1-yl)methyl)-2H-1,2,3-triazol-2-yl)pyrimidine-5-carbonitrile] | 6% | 7.52 | 7.89
16 | Cc1cc(-c2nc(CN3C[C@@H](c4ccc5c(c4C)COC5=O)N[C@@H](C)C3)co2)ncc1C#N [Example 130-I] | 8.4% | 7.28 | 7.70
17 | Cc1nc(-n2cc(CN3CCN[C@H](c4ccc5c(c4C)COC5=O)C3)cn2)ncc1C#N [Example 230-I, (R)-4-methyl-2-(4-((3-(4-methyl-1-oxo-1,3-dihydroisobenzofuran-5-yl)piperazin-1-yl)methyl)-1H-pyrazol-1-yl)pyrimidine-5-carbonitrile] | 2.2% | 7.49 | 7.72
18 | Cc1ncn(-c2ncc(CN3CCN[C@H](c4ccc5c(c4C)COC5=O)C3)cn2)c1C [Example 148-I, (R)-5-(4-((2-(4,5-dimethyl-1H-imidazol-1-yl)pyrimidin-5-yl)methyl)piperazin-2-yl)-4-methylisobenzofuran-1(3H)-one] | 8.8% | 7.57 | 7.72
19 | COc1nc(-n2cc(CN3CCN[C@H](c4ccc5c(c4C)COC5=O)C3)nn2)cc(C)c1C#N [Example 189-I, (R)-2-methoxy-4-methyl-6-(4-((3-(4-methyl-1-oxo-1,3-dihydroisobenzofuran-5-yl)piperazin-1-yl)methyl)-1H-1,2,3-triazol-1-yl)nicotinonitrile] | 8.9% | 7.60 | 7.77
20 | Cc1nc(-n2cnc(CN3C[C@@H](c4ccc5c(c4C)COC5=O)N[C@@H](C)C3)c2)ncc1C#N [Example 164-I, 4-methyl-2-(4-(((3S,5R)-3-methyl-5-(4-methyl-1-oxo-1,3-dihydroisobenzofuran-5-yl)piperazin-1-yl)methyl)-1H-imidazol-1-yl)pyrimidine-5-carbonitrile] | 6% | 7.51 | 7.52
21 | COc1cc(-n2cc(CN3C[C@@H](c4ccc5c(c4C)COC5=O)N[C@@H](C)C3)cn2)ncn1 [Example 207-I, 5-((2R,6S)-4-((1-(6-methoxypyrimidin-4-yl)-1H-pyrazol-4-yl)methyl)-6-methylpiperazin-2-yl)-4-methylisobenzofuran-1(3H)-one] | 10% | 7.28 | 7.74

— patent US10501449B2 (priority 2018, dated 2019)
